Source: patent publication US8426644B2, “Compositions and methods for inhibiting an isoform of human manganese superoxide dismutase” (MitoTek, LLC, priority 2005, dated 2013)
Residue numbers refer to the chain shown, from its start.

Experiments:
isoMnSOD [1] = target: T1, isoMnSOD (Mus musculus, UniProt P09671, DEL77-115); assay: isoMnSOD peroxidative activity, cerebellum mitochondrial extracts on nitrocellulose strips (Example 20); format: biochemical; conditions: 1 μM of compound, 30 min at room temperature; cerebellum of 4 week mice; 1 mM hydrogen peroxide, luminol; FIG. 7
T1 construct: Mitochondrial pellets were lysed in 1% CHAPS detergent; from tissue; host or cells: mouse cerebellum mitochondria
T1 sequence (P09671 with tags, fused parts or gaps DEL77-115): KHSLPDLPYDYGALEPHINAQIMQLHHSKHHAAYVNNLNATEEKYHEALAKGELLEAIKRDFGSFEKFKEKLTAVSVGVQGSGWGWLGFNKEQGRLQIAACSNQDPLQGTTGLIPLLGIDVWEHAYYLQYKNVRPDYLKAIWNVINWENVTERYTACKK
Protocol: Protein extracts containing isoMnSOD were prepared from cerebellum from 4 week mice by first forming a liquid nitrogen powder, resuspended with five volumes of ice-cold lysis buffer (in mM: 20 HEPES-KOH, pH 7.5, 10 KCl, 1.5 MgCl2, 1 DTT, 1 EDTA, 1 EGTA, and 0.1 PMSF) containing 70 mM mannitol and 250 mM sucrose and homogenizing with a Dounce homogenizer. Extract was centrifuged at 750 g for 10 min at 4° C. and the supernatant was then centrifuged at 10,000 g for 15 min at 4° C. to pellet the mitochondrial pellet, which was then stored frozen. Mitochondrial pellets were lysed in 1% CHAPS detergent containing 50 mM Tris-Cl, pH 8.0, 500 mM NaCl and then loaded onto a native 5% polyacrylamide gel. Protein concentration was measured by using the Bradford protein assay kit. After transfer to nitrocellulose, nitrocellulose strips were incubated with 1 μM of compound in 50 mM Tris-HCl, 50 mM NaCl, 5 mM EDTA, pH 8.0 for 30 min at room temperature, then washed extensively with incubation buffer alone. The peroxidative activity of isoMnSOD was measured using 100 of Femtomole luminol (Pierce) containing 1 mM hydrogen peroxide per nitrocellulose strip and exposed to x-ray film.

[2] = test system: PC12 neuroendocrine cell line; assay: Hydrogen peroxide-mediated cell death, Live/Dead assay (Example 21); format: cell-based; conditions: PC12 preincubated with 4 μM for 1 hr, then 1 mM hydrogen peroxide, 20 hrs; FIG. 8
Protocol: Neuroendocrine cell line, PC12, was cultured in DMEM medium containing 10% FBS on plates treated with collagen. Freshly passed cells (1×10(7) cells) were preincubated with 4 μM 2-(3,4-dihydroxy-phenyl)-N-heptadec-8-enyl-acetamide (IV), 2-(2,5-dihydroxy-phenyl)-N-heptadec-8-enyl-acetamide (V) (containing about 30% impurity), or other compound for 1 hr and then treated with 1 mM hydrogen peroxide. After 20 hrs, cultures were examined by the Live/Dead assay (Molecular Probes).

[3] = test system: AMP kinase phosphorylation at Thr172; assay: Doxorubicin-induced activation of AMP kinase in heart explants, western immunoblot (Example 22); format: cell-based; conditions: rat heart explants
Protocol: Hearts from 4 week rats were excised and minced without trypsin in 50:50 medium M199:MCDB 10% FBA containing 5 mM Creatine, 2 mM L-carnitine and 5 mM taurine. Explants were incubated overnight at 37° C. in a 5% CO2 incubator untreated (Lane 1), with 1 mM doxorubicin (Lane 2), and with 1 mM doxorubicin and 4 μM 2-(3,4-dihydroxy-phenyl)-N-heptadec-8-enyl-acetamide (IV) (Lane 3). Explants were frozen at −70° C., liquid nitrogen powders were prepared and lysed and denatured in 2% SDS with 5% BME with boiling for 5 min. Protein extracts were examined by western immunoblotting using a rabbit monoclonal recognizing Phospho-AMP Kinase-α (Thr172) (CellSignal).
The AMP kinase was activated by an elevated AMP(high)/ATP(low) ratio due to cellular and environmental stress, such as heat shock, hypoxia and ischemia. Elevated AMP/ATP ratio and activation of AMPK by phosphorylation at Thr172 can also occur by uncoupling mitochondrial oxidative phosphorylation from respiration with oligomycin and thereby loss of mitochondrial ATP synthesis.

Rats = assay: Doxorubicin-induced heart failure in rats (Example 23); format: in vivo, rat; conditions: IP 10 mg/kg doxorubicin, FIG. 10
Protocol: Rats were treated with IP injections of 10 mg/kg doxorubicin. Left Ventricular Developed Pressure (LVDP): Systolic Pressure-Diastolic Pressure, which is an indicator of ventricular systolic function; dP/dtmax: Maximal rate of pressure development, which is an indicator of ventricular systolic function; dP/dtmin Minimal rate of pressure development, which is an indicator of ventricular diastolic function.

isoMnSOD [4] = target: T2, isoMnSOD (Rattus norvegicus, UniProt P07895, DEL77-115); assay: Immunodetection of isoMnSOD in treated cerebella explants (Example 24); format: cell-based; conditions: cerebella explants of 4 week rat, one hour at 37° C., 5 μM OA-diHPAc; western immunoblot
T2 construct: Cerebella explants from one 4 week rat, strain WKY; from tissue; host or cells: rat (WKY) cerebellum explants
T2 sequence (P07895 with tags, fused parts or gaps DEL77-115): T1 sequence (P09671 with tags, fused parts or gaps DEL77-115) with A33T, A40V, T151S, E152Q, T155I, A156V
Protocol: Immuno detection of isoMnSOD and measurement of isoMnSOD (a) and measurement of caspase 9 cleavage (b) in cerebella explants from 4 week old rat cerebellum and treated with 2-(3,4-dihydroxy-phenyl)-N-heptadec-8-enyl-acetamide (IV). Cerebella explants from one 4 week rat, strain WKY, were incubated in aerated 4 mL of M199:MCDB 10% FBS and incubated one hour at 37° C. in a roller bottle for maximum oxygenation, with or without 5 μM OA-diHPAc. Explants were harvested, quick frozen, and then lysed in boiling SDS and 5% BME and protein extracts were separated in a 4-12% polyacrylamide gel (Novex) and examined by western immunoblot. […] The peptide sequence used as the antigen to form the MnSOD E2/E4 antibody is at the active site of isoMnSOD and modification of isoMnSOD by 2-(3,4-dihydroxy-phenyl)-N-heptadec-8-enyl-acetamide (IV) appears to block epitope recognition. RT/PCR analysis of the MnSOD mRNAs confirmed that the mRNA encoding isoMnSOD is present in treated explants.

isoMnSOD expression = assay: Doxorubicin induction of isoMnSOD expression in adult heart explants, Western Blot (Example 9); format: cell-based, rat; conditions: 3 days, 0.1 nM to 1.0 μM Doxorubicin in AdvDMEM 2% FBS, FIG. 3
Protocol: Briefly, after rats (5 weeks old) were killed by decapitation, the hearts were aseptically excised and residual blood was removed. The heart was perfused in Joklik's medium (containing Joklik's minimal essential medium, 25 mmol/L glutamic acid, 30 mmol/L taurine, and 1 mmol/L adenosine) without recirculation on a modified Langendorff apparatus for approximately 10 minutes at 37° C. The perfusion was then continued for 30 minutes at the same temperature, with recirculation in Joklik's medium containing collagenase type II (100 U/mL). After perfusion, the ventricles were cut into small pieces and tritulated in 0.05% Trypsin/EDTA for 10 min. Cardiac explants were cultured overnight on laminin-coated (20 μg per well) 35-mm six-well plates in medium 199 containing 5% FBS, 5 mM creatine, 2 mM L-carnitine, and 5 mM taurine. Explants were treated with doxorubicin (Sigma) shortly after plating for 24 hrs at 1 mM.

[5] = test system: altMnSODreport reporter expression; assay: Reporter gene system (altMnSODreport) to analyze compounds for toxicity (Example 17); format: cell-based; conditions: cells comprising the reporter gene system; written in present tense
Excerpt: The test reporter system utilizes a recombinant DNA construct that contains an in frame fusion of a genomic fragment spanning MnSOD Exon 2 to Exon 4, but which also harbors a mutant MnSOD Exon 3, (i.e. frameshift mutation), to a B-galactosidase gene, or Green Fluorescence Protein (“altMnSODreport”). Alternative splicing and skipping of MnSOD (coding) Exon 3 will result in a fusion protein comprising a short stretch of MnSOD E2 and E4 coding sequences N-terminal to a reporter protein; the MnSODE2E4 amino acid sequence is 20 amino acids and should not interfere with the expression of the reporter. […]
Breast cancer cell line, MDA-MB-435, Her-2/neu over-expressing (ATCC), fibroblast cells lines NIH3T3 and B104, which are NIH3T3 cells transfected with the rat ErbB2/Her2 oncogene, and normal primary cells (Clonetics; rat cardiomyocytes, donated by Kathryn Maschhoff, MD PhD, Neonatology, University of Pennsylvania) are treated with doxorubicin alone and in combination with the rat ErbB2/Her2 17.6.4 monoclonal antibody, which downregulates the human and rat Her2 receptor (Zhang et al., 1999) (Oncogene), and Herceptin™ (Genentech). It is also determined if the Her2 mAbs induces isoMnSOD expression in untransfected cells and cells transfected with altMnSODreport. […]

[6] = test system: mitochondrial peroxidase activity (isoMnSOD); assay: Peroxidative assay (ROS-activity blot) of mitochondrial extracts from treated pancreatic explants (Example 12); format: cell-based, pig; conditions: pancreatic explant cultured 1 hr at 37° C. with equal volume of 2 μM compound, FIG. 1
Protocol: F10 medium was used throughout the procedure. Pancreas (8 grams) from a 3 kilo pig was minced, washed twice, and 1 g of tissue was resuspended in 5 ml of F10 medium. […] Explants were stored frozen at −70° C. Tissue was homogenized in Buffer A at 4° C. and mitochondria was isolated by differential centrifugation and stored frozen at −70° C. Peroxidative assay of native mitochondrial extracts analyzed by the ROS-activity blot.

[7] = target: T3, MnSOD-Exon3-deleted isoform (isoMnSOD) (Homo sapiens, UniProt P04179); assay: Detection of inhibitors bound to isoMnSOD by combined immunoprecipitation/western blot (Example 13); format: binding; conditions: immunoprecipitation with anti-dopamine or anti-serotonin antibody, isoMnSOD detected; FIG. 2A, 2B
T3 sequence (P04179 25-183 isoform P04179-2 limits assumed): T1 sequence (P09671 with tags, fused parts or gaps DEL77-115) with A40V, H46Q, E66D, V75A, Q93R, R95H, S102P, T155M
Protocol: Covalent modification of the MnSOD-Exon3-deleted isoform was measured by a combined immunoprecipitation/western blot analysis. Immunoblots for detecting AA-DA, EPA-DA, DHA-DA, C18:4(ω-3)-DA adducts were performed using anti-dopamine rabbit polyclonal (Chemicon) and anti-serotonin goat polyclonal antibodies (ImmunoStar), respectively. After immunoprecipitating using an antibody against the inhibitor, isoMnSOD was detected as described above.

isoMnSOD [8] = assay: Inhibition of pro-oxidant activity of isoMnSOD, at least one of the assays of the Examples; conditions: according to at least one of the assays provided in the Examples
isoMnSOD [9] = assay: Drug inhibition method: peroxidative activity of isoMnSOD on PVDF strips (Example 4); conditions: 1 μM test compound in TBS, 30 minutes; pancreatic mitochondria native extracts on PVDF; 1 mM H2O2, luminol; FIG. 4
Protocol: Each test compound was prepared by mixing 5 μL of a 1 mM test compound stock solution in ethanol with 5 μL of 0.1 M KOH, followed by the addition of 5 ml of TBS for a final concentration of 1 μM test compound. Equal amounts of native protein extracts from pancreatic mitochondria (obtained according to the protocol of Example 5) were loaded in separate wells and resolved in a 7% PAGE gel without SDS, electrotransferred to PVDF and divided into strips. Each PVDF strip was incubated with 1 μM of test compound in TBS for 30 minutes, washed twice in TBS for 20 minutes, and the peroxidative activity of isoMnSOD was measured by incubation of each strip with 1 mM H2O2 in 0.4 ml of the luminol solution contained within the Femtomole chemiluminescence assay kit (Pierce) and exposed to x-ray film (FIG. 4).
All procedures were carried out at 4° C. Mitochondria were obtained from a liquid nitrogen powder of one pig pancreas (˜8 g), which was resuspended in 15 ml of buffer A containing following protease inhibitors: 1 μg/ml aprotinin, 1 μg/ml pepstatin A, 1 μg/ml chymostatin A, 2 μg/ml leupeptin, 2 μM benzamide hydrochloride, and 1 μM phenylmethylsulfonyl fluoride. Tissue was broken with a Potter homogenizer and the homogenate was centrifuged for 10 min at 800 g to remove cell debris. The supernatant was centrifuged at 10,000 g from 15 min to recover mitochondria. The mitochondrial pellet was washed twice with a hand held Dounce homogenizer and mitochondria were stored frozen. Mitochondria were lysed by slowly adding 1 ml of M-Per (Pierce) containing 1/10 vol 5M NaCl and 1/10 vol Buffer A. The mitochondrial lysate was subsequently clarified by centrifugation for 10 min at 2000 g.

Inhibition (isoMnSOD [1]) | binding to isoMnSOD (covalent modification) [7] | Compound | inhibition of mitochondrial peroxidase activity [6] | inhibition of pro-oxidant activity of isoMnSOD (isoMnSOD [8]) | inhibition of peroxidative activity of isoMnSOD (isoMnSOD [9]) | further results
yes |  | CCCCCCCC/C=C\CCCCCCCNC(=O)Cc1cc(O)ccc1O [2-(2,5-dihydroxy-phenyl)-N-heptadec-8-enyl-acetamide] |  |  |  | 
yes |  | CCCCCCCC/C=C\CCCCCCCNC(=O)Cc1ccc(O)c(O)c1 [2-(3,4-dihydroxy-phenyl)-N-heptadec-8-enyl-acetamide] |  |  |  | Protection of hydrogen peroxide-mediated cell death [2]: Protection; suppression of doxorubicin-induced AMP kinase activation ([3]; 1 mM doxorubicin and 4 μM compound overnight, FIG. 9 Lane 3): suppresses this activation; cardio protection of doxorubicin-induced heart failure (LVDP, dP/dtmax, dP/dtmin) (Rats): exerts cardio protection; antigenicity of isoMnSOD with MnSOD E2/E4 peptide antibody and MnSOD antibody (isoMnSOD [4]): loss of antigenicity with the MnSOD E21E4 peptide antibody but not with the MnSOD antibody
 |  | COc1cccc2c1C(=O)c1c(O)c3c(c(O)c1C2=O)C[C@@](O)(C(=O)CO)C[C@@H]3O[C@H]1C[C@H](N)[C@H](O)[C@H](C)O1 [Doxorubicin] |  |  |  | Activation of AMP kinase by phosphorylation at Thr172 ([3]; 1 mM doxorubicin overnight, FIG. 9 Lane 2): Activation; isoMnSOD expression (isoMnSOD expression): induced isoMnSOD expression; expression of altMnSOD report [5]: causes an increase
no |  | COC1=C(OC)C(=O)C(CCCCCCCCCCO)=C(C)C1=O [Idebenone] |  |  |  | 
 | able to bind to isoMnSOD | CC/C=C\C/C=C\C/C=C\C/C=C\C/C=C\C/C=C\CCC(=O)NCCc1ccc(O)c(O)c1 [docosahexaenoyl (DHA)-dopamine, docosahexaenoyl dopamine] | inhibited the mitochondrial peroxidase activity | inhibit pro-oxidant activity of isoMnSOD | inhibit peroxidative activity more significantly than the other compounds | 
 |  | CC/C=C\C/C=C\C/C=C\C/C=C\C/C=C\CCCC(=O)NCCc1ccc(O)c(O)c1 [eicosapentaenoyl (EPA)-dopamine, eicosapentaenoyl dopamine] | did not inhibit peroxidase activity to the same effect | inhibit pro-oxidant activity of isoMnSOD | inhibit peroxidative activity more significantly than the other compounds | 
 | able to bind to isoMnSOD | C18:4(ω-3)-dopamine | inhibited the mitochondrial peroxidase activity | inhibit pro-oxidant activity of isoMnSOD | inhibit peroxidative activity more significantly than the other compounds | 
yes |  | Prostaglandin A1-biotinimide |  |  |  | 

Compound | Inhibition (isoMnSOD [1]) | binding to isoMnSOD (covalent modification) [7] | inhibition of mitochondrial peroxidase activity [6] | inhibition of pro-oxidant activity of isoMnSOD (isoMnSOD [8]) | inhibition of peroxidative activity of isoMnSOD (isoMnSOD [9]) | further results
CCCCC/C=C\C/C=C\C/C=C\C/C=C\CCCC(=O)NCCc1c[nH]c2ccc(O)cc12 [arachidonoyl-serotonin, arachidonoyl serotonin] |  | able to bind to isoMnSOD | inhibited the mitochondrial peroxidase activity | inhibit pro-oxidant activity of isoMnSOD |  | 
Arachidonic acid-biotinimide | yes |  |  |  |  | 
